Measurements as given in ChEMBL document CHEMBL1201862, “PubChem BioAssay data set” (2004).
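Values below derive from 48-hour exposures of cells grown in 96-well plates, with endpoints linearly interpolated between the two concentrations bracketing the appropriate inhibition level. Abbreviation: GI50, concentration required for 50% inhibition of growth.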 Calls of active or inactive are those of the source. No stated cut-off is given here; in the data, active = GI50 up to about 1.1 µM and inactive = higher.

What was measured:
Experiment in all cases: inhibition of tumour cell growth, NCI panel, 48 h
A549 = system: A549
CAKI-1 = system: CAKI-1
CCRF-CEM = system: CCRF-CEM
DLD-1 = system: DLD-1
DMS-273 = system: DMS-273
EKVX = system: EKVX
HCT-15 = system: HCT-15
HL-60 = system: HL-60
HOP-18 = system: HOP-18
HOP-62 = system: HOP-62
HOP-92 = system: HOP-92
HT-29 = system: HT-29
IGROV-1 = system: IGROV-1
K562 = system: K562
M19-MEL = system: M19-MEL
MCF7 = system: MCF7
NCI-H23 = system: NCI-H23
OVCAR-5 = system: OVCAR-5
OVCAR-8 = system: OVCAR-8
SF-268 = system: SF-268
SK-MEL-28 = system: SK-MEL-28
SK-OV-3 = system: SK-OV-3
SN12C = system: SN12C
SNB-19 = system: SNB-19
SNB-78 = system: SNB-78
SW-620 = system: SW-620
U-251 = system: U-251
786-0 = system: 786-0
A498 = system: A498
COLO 205 = system: COLO 205
HCC 2998 = system: HCC 2998
HCT-116 = system: HCT-116
KM-20L2 = system: KM-20L2
KM12 = system: KM12
M14 = system: M14
MOLT-4 = system: MOLT-4
NCI-H460 = system: NCI-H460
NCI-H522 = system: NCI-H522
OVCAR-3 = system: OVCAR-3
OVCAR-4 = system: OVCAR-4
RPMI-8226 = system: RPMI-8226
RXF 393 = system: RXF 393
SF-295 = system: SF-295
SK-MEL-2 = system: SK-MEL-2
SK-MEL-5 = system: SK-MEL-5
SNB-75 = system: SNB-75
TK-10 = system: TK-10
UACC-257 = system: UACC-257
UACC-62 = system: UACC-62
UO-31 = system: UO-31
ACHN = system: ACHN
DMS-114 = system: DMS-114
LOX IMVI = system: LOX IMVI
Malme-3M = system: Malme-3M
NCI-H226 = system: NCI-H226
SF-539 = system: SF-539
BT-549 = system: BT-549
DU-145 = system: DU-145
Hs-578T = system: Hs-578T
MDA-MB-231 = system: MDA-MB-231
MDA-MB-435 = system: MDA-MB-435
MDA-N = system: MDA-N
NCI/ADR-RES = system: NCI/ADR-RES
PC-3 = system: PC-3
SR = system: SR
T47D = system: T47D

Measured: GI50

C[C@]12CC[C@@H]3c4ccc(OC(=O)N(CCCl)CCCl)cc4CC[C@H]3[C@@H]1CC[C@@H]2O [ESTRAMUSTINE]
0.025 µM: HCT-15
active: A549 0.025 µM | CAKI-1 0.025 µM | CCRF-CEM 0.025 µM | DLD-1 0.025 µM | EKVX 0.025 µM | HL-60 0.025 µM | HOP-62 0.025 µM | HOP-92 0.025 µM | HT-29 0.025 µM | IGROV-1 0.025 µM | K562 0.025 µM | M19-MEL 0.025 µM | MCF7 0.025 µM | NCI-H23 0.025 µM | OVCAR-5 0.025 µM | OVCAR-8 0.025 µM | SF-268 0.025 µM | SK-MEL-28 0.025 µM | SK-OV-3 0.025 µM | SN12C 0.025 µM | SNB-19 0.025 µM | SNB-78 0.025 µM | SW-620 0.025 µM
inactive: DMS-273 2.5 µM | HOP-18 6.04 µM | U-251 1.78 µM

c1ccncc1
inactive: 786-0 > 100 µM | A498 > 100 µM | CAKI-1 > 100 µM | CCRF-CEM > 100 µM | COLO 205 > 100 µM | EKVX > 100 µM | HCC 2998 > 100 µM | HCT-116 > 100 µM | HL-60 > 100 µM | HOP-62 > 100 µM | HOP-92 > 100 µM | HT-29 > 100 µM | IGROV-1 > 100 µM | K562 > 100 µM | KM-20L2 > 100 µM | KM12 > 100 µM | M14 > 100 µM | MOLT-4 > 100 µM | NCI-H460 > 100 µM | NCI-H522 > 100 µM | OVCAR-3 > 100 µM | OVCAR-4 > 100 µM | OVCAR-5 > 100 µM | OVCAR-8 > 100 µM | RPMI-8226 > 100 µM | RXF 393 > 100 µM | SF-295 > 100 µM | SK-MEL-28 > 100 µM | SK-MEL-2 > 100 µM | SK-MEL-5 > 100 µM | SK-OV-3 > 100 µM | SNB-19 > 100 µM | SNB-75 > 100 µM | SW-620 > 100 µM | TK-10 > 100 µM | U-251 > 100 µM | UACC-257 > 100 µM | UACC-62 > 100 µM | UO-31 > 100 µM

C/C(=C\CC[C@]1(C)OC(C)(C)OC1CC/C(C)=C/CO[Si](c1ccccc1)(c1ccccc1)C(C)(C)C)CC/C=C/CO[Si](C)(C)C(C)(C)C (stereo partly drawn)
inactive: 786-0 > 100 µM | A498 > 100 µM | A549 > 100 µM | ACHN > 100 µM | CAKI-1 > 100 µM | CCRF-CEM > 100 µM | DLD-1 > 100 µM | DMS-114 > 100 µM | DMS-273 > 100 µM | EKVX > 100 µM | HCC 2998 > 100 µM | HCT-116 > 100 µM | HL-60 > 100 µM | HOP-62 > 100 µM | HOP-92 > 100 µM | HT-29 > 100 µM | IGROV-1 > 100 µM | K562 > 100 µM | KM-20L2 > 100 µM | KM12 > 100 µM | LOX IMVI > 100 µM | M14 > 100 µM | M19-MEL > 100 µM | MOLT-4 > 100 µM | Malme-3M > 100 µM | NCI-H226 > 100 µM | NCI-H23 > 100 µM | NCI-H460 > 100 µM | NCI-H522 > 100 µM | OVCAR-3 74.5 µM | OVCAR-4 > 100 µM | OVCAR-5 > 100 µM | OVCAR-8 > 100 µM | RPMI-8226 > 100 µM | RXF 393 > 100 µM | SF-268 > 100 µM | SF-295 > 100 µM | SF-539 > 100 µM | SK-MEL-28 > 100 µM | SK-MEL-2 > 100 µM | SK-MEL-5 > 100 µM | SK-OV-3 > 100 µM | SN12C > 100 µM | SNB-19 > 100 µM | SNB-75 > 100 µM | SNB-78 > 100 µM | SW-620 > 100 µM | TK-10 > 100 µM | U-251 > 100 µM | UACC-257 > 100 µM | UACC-62 > 100 µM | UO-31 > 100 µM
> 100 µM: HCT-15

N#Cc1c(Cl)cc(Cl)n2c1nc1ccccc12
inactive: 786-0 2.86 µM | A498 22 µM | A549 17.3 µM | ACHN 2.64 µM | BT-549 6.38 µM | CAKI-1 3.43 µM | CCRF-CEM 2.49 µM | COLO 205 3.52 µM | DU-145 14.3 µM | EKVX 23.1 µM | HCC 2998 2.51 µM | HCT-116 4.74 µM | HL-60 1.31 µM | HOP-62 22.9 µM | HOP-92 4.85 µM | HT-29 7.55 µM | Hs-578T 11 µM | IGROV-1 8.05 µM | K562 2.61 µM | KM12 18.3 µM | LOX IMVI 6.84 µM | M14 8.53 µM | MCF7 4.66 µM | MDA-MB-231 6.49 µM | MDA-MB-435 11.5 µM | MDA-N 10.1 µM | MOLT-4 3.21 µM | Malme-3M 2.76 µM | NCI-H226 13.8 µM | NCI-H23 18.2 µM | NCI-H460 8 µM | NCI-H522 2.29 µM | NCI/ADR-RES 12.6 µM | OVCAR-3 6 µM | OVCAR-4 10.4 µM | OVCAR-5 20 µM | OVCAR-8 15.3 µM | PC-3 14.3 µM | RPMI-8226 4.27 µM | RXF 393 13.2 µM | SF-268 14.1 µM | SF-295 17.3 µM | SF-539 4.47 µM | SK-MEL-28 7.35 µM | SK-MEL-2 17.6 µM | SK-MEL-5 14.3 µM | SK-OV-3 16.9 µM | SN12C 15.3 µM | SNB-19 22 µM | SNB-75 14 µM | SR 5.18 µM | SW-620 3.15 µM | T47D 5.64 µM | TK-10 6.68 µM | U-251 20 µM | UACC-257 10.3 µM | UACC-62 12.6 µM | UO-31 3.63 µM
3.43 µM: HCT-15
